The values that follow come from article PMC11228983, “Rapid Protein–Ligand Affinity Determination by Photoinduced Hyperpolarized NMR” (Journal of the American Chemical Society, 2024).

SMILES strings stand for the structures. Residues, ends and D or L forms follow the SMILES beside them.

Test [1] addresses T1, PDZ2 domain of human tyrosine phosphatase 1E (hPTP1E) (Homo sapiens, UniProt Q12923).
T1 construct: the constructs used for the PDZ2 domain of human tyrosine phosphatase 1E; polyhistidine (N); made in house; host or cells: Escherichia coli BL21 (DE3)
T1 sequence (Q12923 1368-1452 limits assumed): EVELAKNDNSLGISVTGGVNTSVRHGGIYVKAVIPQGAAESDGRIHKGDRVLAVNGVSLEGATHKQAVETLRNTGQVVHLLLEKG
As to the kind of experiment: Competition CIDNP-KD assay with photo-CIDNP-active reporter peptide. In kind it is binding. The following applies: reporter WVSAV 20 μM (KD,R 170 μM), 5 μM PDZ2; 1000 ms irradiation, single scan; read-out: Competition CIDNP-KD (KD,C), Hβ of reporter WVSAV. The text has this:
Photo-CIDNP hyperpolarization is limited to a particular chemical space of ligands that contain heteroaromatics and heterosubstituted aromatic rings.[24],[29] To address the challenge of limited chemical space, we extend CIDNP-KD to measure the affinity of nonpolarizable ligands through competition with a polarizable reporter ligand R, whose affinity KD,R is known as depicted in Scheme 2. By adding a competitor C, the concentration and photo-CIDNP signal of the reporter ligand R* will increase, indicating the reduced amount of the complex PR* and, by extension, PR.[30]
To calculate the concentration of the ligand–protein complex in the presence of the binding competitor, the ratio of the amplification factors in the presence and absence of the competitor [drawing 6] […]
These competitor ligands lack a tryptophan residue, whereas the reporter ligands WVSAV and WQVSAV are photo-CIDNP-active due to the tryptophan tag. The hyperpolarized signal of WVSAV or WQVSAV in the presence of the PDZ2 domain was measured for increasing concentrations of the peptides QVSAV or ENEQVSAV, respectively. […]
Figure 3 KD determination of nonphoto-CIDNP-active peptides binding to a PDZ2 domain. […] The bound reporter population is plotted, calculated from the hyperpolarized tryptophan Hβ using eq 7. […] Each data point is measured with a single-scan experiment with a laser irradiation duration of (A) 1000 ms or (B) 2000 ms. […]

Test [2] has as its target T1, PDZ2 domain of human tyrosine phosphatase 1E (hPTP1E). As to the kind of experiment: 2D [1H,15N]-HSQC chemical shift perturbation titration. The class given is binding. To be noted: 30 μM 15N PDZ2, pH 6.8, 298 K. As for the experimental part:
We compared the affinities of the peptides obtained via CIDNP-KD with the state-of-the-art 2D [^1H, ^15N]-HSQC titration experiments measured with 30 μM PDZ2 (Figure S3).
Expression and purification were carried out as in previously reported procedures. In short, expression in Escherichia coli cells (BL21 (DE3)) and purification via Ni-NTA chromatography as the constructs used for the PDZ2 domain of human tyrosine phosphatase 1E and human PIN1 both contained N-terminal polyhistidine tags. Both protein constructs were measured in an NMR buffer consisting of 50 mM NaCl, 20 mM KPO4, and 10% D2O at pH 6.8. For the control [^1H, ^15N]-HSQC experiments, the PDZ2 domain was expressed in ^15N-enriched minimal medium.[34],[43]
All photo-CIDNP and STD-NMR experiments were recorded at 298 K on a Bruker Avance III HD 600 MHz spectrometer equipped with a cryoprobe. The [^15N, ^1H] – HSQC titration experiments of the PDZ2 domain were performed also at 298 K on another Bruker Avance IIII HD 600 MHz spectrometer equipped with a cryoprobe and SampleJet.
Peak picking was performed with the maximal peak picking tool of Mnova software. Plotting, fitting, and data analysis was done in RStudio with the workflow described above. The [^15N, ^1H]-HSQC reference affinities were analyzed with CCPNMR3.1.[62] The backbone assignment was taken from BMRB 34688.
Fig. S3: 2D [15N, 1H]-HSQC titration of peptides to hPDZ2 domain. The 2D [ 15N, 1H]-
HSQC spectra of the titration series in presence of 30 µM hPDZ2 domain and the
corresponding observed chemical shift difference of A74 plotted versus the peptide
(1 picture or pasted object on this page, not shown here)

`CC(C)[C@H](NC(=O)[C@H](C)NC(=O)[C@H](CO)NC(=O)[C@@H](NC(=O)[C@@H](N)CCC(N)=O)C(C)C)C(=O)O` [QVSAV] (H-QVSAV-OH): the Kd in test [1] was 580 ± 30 µM; in test [2] (15N–1H moiety of A74, read-out: [1H,15N]-HSQC–CSP KD, NH of A74) it was 155 ± 10 µM; in test [2] (range over residues, read-out: [1H,15N]-HSQC–CSP KD range of all residues showing chemical shift perturbation), 90 to 750 µM.
